Test results: patent US20180346731A1, “Formation of Stable Pyranoanthocyanins, and Uses Thereof as Sources of Natural Color” (Ohio State Innovation Foundation, priority 2017, published 2018)

Experiment: Colorimetry (CIEL*c*h*, ΔE2000) of anthocyanin isolates treated with pyruvic acid, 31 days storage
Format: physicochemical
Settings: day 0 vs day 31, Delta E2000
Protocol: Prior to dilution, the concentrations of the isolated pigment extracts were determined by the pH differential method for subsequent dilution to known concentrations. The isolates were then diluted to 500 μM (expressed as Cyanidin-3-glucoside equivalents) in pH 2.5 deionized water (previously adjusted with HCl) which contained 0.1% potassium sorbate (w/v) and 0.1% sodium benzoate (w/v) to function as preservative agents during storage. A pH of 2.5 was selected as a compromise of several variables: the flavylium form was predominant, the effect of pKh was minimized, and it is a relevant pH for wines. It has been reported that the pKh's of cy3 gal, cy3xylgal, and cy3xylglugal ranges from 3.01 to 3.26. Working at pH 2.5 largely avoided the effect of different equilibrium forms while also maintaining a pH that is similar to that of wines where these compounds are commonly formed. Control samples of each isolate were prepared and contained no pyruvic acid. For treatments containing pyruvic acid, a previously diluted pyruvic acid standard (pyruvic acid in the same pH 2.5 water containing preservatives) was added to obtain concentrations 100× the molar ratio of anthocyanins (50 mM of pyruvic acid). All treatments were brought to the same final volume by the addition of more pH 2.5 water. Samples were filtered through a 0.2 μm membrane into 1.5 mL glass HPLC vials. Vials were capped and stored in an incubator in the dark at 25° C. for a 31 day duration (Fisher Scientific, Waltham, Mass., U.S.). All treatments were prepared in triplicate.
Colorimetric data of samples was calculated from spectra of samples collected from the plate reader with ColorBySpectra. Absorbance data was obtained and conversion to color values was achieved using the following settings: regular transmission, D65 illuminant, and 10° observer angle. Values reported are in the CIEL*c*h* scale. After storage for 31 days, the mathematical differences in color (ΔE) were calculated according to the CIE-L*a*b* Delta E2000 equation. Colorimetric data of the samples containing pyruvic acid was used to correlate with pyranoanthocyanins formation. Spectral absorbance data of the peaks of the anthocyanins and their respective pyranoanthocyanins were also collected from the PDA during uHPLC analyses and converted to colorimetric data using ColorBySpectra under the settings described above. The spectra was obtained from the time of elution of the target compound and then standardized to an absorbance of 1.0 at λvis-max.

For `OC[C@H]1O[C@@H](Oc2cc3c(O)cc(O)cc3[o+]c2-c2ccc(O)c(O)c2)[C@H](O)[C@@H](O)[C@H]1O` [Cyanidin-3-galactoside, cyanidin-3-galactoside], the “total color change (ΔE)” value was 8.2.
